Common to all, as to type: cell-based
The target in assay [1] is T1, hERG channels (Homo sapiens, UniProt Q12809).
T1 construct: cryopreserved at Evotec (Germany) ATCC PTA-6812; host or cells: CHO (Chinese hamster) crelox hERG cell line
Briefly: hERG screening assay (automated patch clamp). The following applies: CHO crelox hERG cell line, whole-cell patch clamp SynchroPatch 384, 35-37° C. An excerpt:
hERG Screening Assay The CHO crelox hERG cell line (ATCC reference Nr. PTA-6812, female Chinese hamster cells) was generated and validated at Roche. Ready-to-use frozen instant CHO-hERG cells were cryopreserved at Evotec (Germany) and used directly in the experiments. The extracellular solution contains (in mM): NaCl 150; KCl 4; CaCl2 1; MgCl2 1; HEPES 10; pH 7.2-7.4 with NaOH, osmolarity 290-330 mOsm. The internal solution contains (in mM): KCl, 10; KF, 100; NaCl, 10; HEPES, 10; EGTA, 20; pH=7.0-7.4 with KOH, osmolarity 260-300 mOsm. The effects of a compound on hERG K+-currents parameters will be evaluated at 2 concentrations in at least 4 cells. The hERG test is performed using automated patch clamp system SynchroPatch® 384 (Nanion Technologies GmbH, Germany). K+ currents are measured with the patch-voltage-clamp technique in the whole-cell configuration at 35-37° C. Cells were held at a resting voltage of −80 mV and they were stimulated by a voltage pattern shown in FIG. 1 to activate hERG channels and conduct outward IKhERG current, at a stimulation frequency of 0.1 Hz (6 bpm) The amplitudes of IKhERG were recorded in each concentration of drug and they were compared to the vehicle control values (taken as 100%) to define fractional blocks. The concentration-response data were fitted with the following relationship: where C is the concentration, • IC50 is the concentration producing 50% block • h is the Hill coefficient. Concentration-response curves were fitted by non-linear regression analysis using EworkBook suite (ID Business Solutions Ltd, UK). Data fit was done with the 4 Parameter Logistic Model (fit=(A+(B/(1+((x/C)^D)))), where A=0 and B=100).

The target in assay [2] is T2, NLRP3 (Homo sapiens, UniProt Q96P20). The experiment in a line: THP-1 cells pyroptosis assay. The arrangement: Seed THP-1 cells (25,000 cells/well) containing 1.0 μg/ml LPS; host or cells: THP-1 cells, LPS-primed, nigericin-stimulated. As to conditions: 1.0 μg/ml LPS, nigericin 5 μM, resazurin readout. The protocol:
The cells were routinely passaged and grown to confluency (˜10^6 cells/ml). On the day of the experiment, THP-1 cells were harvested and resuspended into RPMI medium (without FBS). […] To this diluted cell solution was added LPS (Sigma #L4524) to give a 1 μg/ml Final Assay Concentration (FAC). 40 μl of the final preparation was aliquoted into each well of a 96-well plate. The plate thus prepared was used for compound screening.
The following method step-by-step assay was followed for compound screening. • 1. […] Incubate for 3 hrs at 37° C., 5% CO2 • 4. Add 5 μl nigericin (Sigma #N7143) (FAC 5 μM) to all wells • 5. Incubate for 1 hr at 37° C., 5% CO2 • 6. At the end of the incubation period, spin plates at 300×g for 3 mins and remove supernatant • 7. Then add 50 μl of resazurin (Sigma #R7017) (FAC 100 μM resazurin in RPMI medium without FBS) and incubate plates for a further 1-2 hrs at 37° C. and 5% CO2 • 8. […] IC50 data is fitted to a non-linear regression equation (log inhibitor vs response-variable slope 4-parameters)
On the technique in general: Alamar Blue is a resazurin reagent that responds to reducing activity.

The target in assay [3] is T2, NLRP3. The experiment in a line: Human whole blood IL-1β release assay. As to conditions: 1 μg/ml LPS, nigericin 10 μM, IL-1β by AlphaLisa. The arrangement: Human whole blood in Li-heparin tubes was obtained from healthy donors; from tissue; host or cells: human whole blood from healthy donors, LPS-primed, nigericin-stimulated. As to the method:
For systemic delivery, the ability to inhibit NLRP3 when the compounds are present within the bloodstream is of great importance. For this reason, the NLRP3 inhibitory activity of a number of compounds in human whole blood was investigated in accordance with the following protocol.
Human whole blood in Li-heparin tubes was obtained from healthy donors from a volunteer donor panel. • 1. […] Incubate for 3 hrs at 37° C., 5% CO2 • 4. Add 10 μl nigericin (Sigma #N7143) (10 μM FAC) to all wells • 5. Incubate for 1 hr at 37° C., 5% CO2 • 6. At the end of the incubation period, spin plates at 300×g for 5 mins to pellet cells and remove 20 μl of supernatant and add to 96-well v-bottom plates for IL-1β analysis (note: these plates containing the supernatants can be stored at −80° C. to be analysed at a later date) • 7. IL-1β was measured according to the manufacturer protocol (Perkin Elmer-AlphaLisa IL-1 Kit AL220F-5000) • 8. IC50 data is fitted to a non-linear regression equation (log inhibitor vs response-variable slope 4-parameters)

Structures are written as SMILES.

T1 sequence (Q12809 whole entry): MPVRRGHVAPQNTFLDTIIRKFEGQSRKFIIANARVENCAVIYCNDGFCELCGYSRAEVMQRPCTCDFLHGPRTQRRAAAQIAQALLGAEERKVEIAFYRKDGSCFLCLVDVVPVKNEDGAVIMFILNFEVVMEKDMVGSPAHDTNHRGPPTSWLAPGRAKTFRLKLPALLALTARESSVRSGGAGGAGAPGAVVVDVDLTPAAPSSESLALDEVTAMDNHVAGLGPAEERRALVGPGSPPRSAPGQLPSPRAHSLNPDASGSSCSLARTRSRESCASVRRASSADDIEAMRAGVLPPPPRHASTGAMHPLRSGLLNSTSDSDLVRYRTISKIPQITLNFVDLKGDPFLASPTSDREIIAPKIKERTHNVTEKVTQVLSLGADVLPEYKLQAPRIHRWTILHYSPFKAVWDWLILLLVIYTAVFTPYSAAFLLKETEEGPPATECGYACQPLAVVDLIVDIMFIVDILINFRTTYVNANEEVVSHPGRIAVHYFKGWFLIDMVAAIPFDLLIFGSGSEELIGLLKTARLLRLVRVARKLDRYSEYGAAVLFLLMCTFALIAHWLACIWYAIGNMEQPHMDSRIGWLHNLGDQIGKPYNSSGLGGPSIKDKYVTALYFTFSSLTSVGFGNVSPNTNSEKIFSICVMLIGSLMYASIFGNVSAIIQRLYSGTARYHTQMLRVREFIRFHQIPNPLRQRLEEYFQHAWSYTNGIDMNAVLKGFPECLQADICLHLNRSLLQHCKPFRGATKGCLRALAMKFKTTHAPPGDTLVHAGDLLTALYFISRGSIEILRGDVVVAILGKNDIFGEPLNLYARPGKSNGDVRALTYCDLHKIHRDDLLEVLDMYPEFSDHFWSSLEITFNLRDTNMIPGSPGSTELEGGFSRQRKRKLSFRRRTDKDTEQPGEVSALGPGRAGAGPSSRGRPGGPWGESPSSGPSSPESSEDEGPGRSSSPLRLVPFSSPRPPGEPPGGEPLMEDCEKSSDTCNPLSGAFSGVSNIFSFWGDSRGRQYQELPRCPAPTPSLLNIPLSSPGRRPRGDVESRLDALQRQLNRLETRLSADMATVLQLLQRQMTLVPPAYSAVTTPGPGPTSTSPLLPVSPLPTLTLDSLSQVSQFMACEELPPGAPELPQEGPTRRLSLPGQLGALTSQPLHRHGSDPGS
T2 sequence (Q96P20 whole entry): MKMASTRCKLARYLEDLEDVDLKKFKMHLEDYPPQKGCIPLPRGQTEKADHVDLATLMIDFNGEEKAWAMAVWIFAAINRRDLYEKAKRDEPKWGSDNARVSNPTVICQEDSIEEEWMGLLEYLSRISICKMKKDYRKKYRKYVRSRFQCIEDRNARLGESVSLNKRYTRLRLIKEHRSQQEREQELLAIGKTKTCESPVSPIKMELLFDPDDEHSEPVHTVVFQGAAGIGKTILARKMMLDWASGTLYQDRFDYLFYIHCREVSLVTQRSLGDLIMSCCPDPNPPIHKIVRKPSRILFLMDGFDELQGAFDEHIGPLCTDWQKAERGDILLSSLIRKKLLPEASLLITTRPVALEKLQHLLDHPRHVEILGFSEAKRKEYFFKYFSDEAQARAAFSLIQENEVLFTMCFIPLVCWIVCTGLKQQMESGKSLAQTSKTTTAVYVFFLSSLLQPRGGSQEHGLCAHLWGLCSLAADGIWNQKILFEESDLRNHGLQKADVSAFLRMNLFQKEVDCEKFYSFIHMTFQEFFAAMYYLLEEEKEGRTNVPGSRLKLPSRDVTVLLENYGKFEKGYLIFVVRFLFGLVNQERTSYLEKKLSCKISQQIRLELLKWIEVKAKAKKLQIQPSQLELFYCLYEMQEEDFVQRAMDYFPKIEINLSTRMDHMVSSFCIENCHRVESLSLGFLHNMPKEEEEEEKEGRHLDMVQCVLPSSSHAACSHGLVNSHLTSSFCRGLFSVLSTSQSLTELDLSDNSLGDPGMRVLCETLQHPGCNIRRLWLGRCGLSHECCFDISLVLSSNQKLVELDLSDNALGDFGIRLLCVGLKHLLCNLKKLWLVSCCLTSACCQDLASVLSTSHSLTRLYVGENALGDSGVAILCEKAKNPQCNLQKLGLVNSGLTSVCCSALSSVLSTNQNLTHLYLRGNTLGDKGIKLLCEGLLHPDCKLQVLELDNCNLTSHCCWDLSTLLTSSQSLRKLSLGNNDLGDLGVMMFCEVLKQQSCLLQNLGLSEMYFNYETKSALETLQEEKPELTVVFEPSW

For orientation: IC50 means the concentration at which inhibition is half-maximal. A higher IC50 goes with a need for much substance. Take `CCN1CCCC(Nc2nnc(-c3ccc(C(F)(F)F)cc3O)n(C)c2=O)C1` (centres unmarked) [Example 1, 6-((1-ethylpiperidin-3-yl)amino)-3-(2-hydroxy-4-(trifluoromethyl)phenyl)-4-methyl-1,2,4-triazin-5(4H)-one]: the half-inhibitory concentration (IC50) in assay [1] is more than 20 µM; in assay [2] it was 44 nM; in assay [3], 35 nM.

Turning to `CCN1CCC[C@@H](Nc2nnc(-c3ccc4c(c3O)CCO4)n(C)c2=O)C1` [Example 2, 6-[[(3R)-1-Ethyl-3-piperidyl]amino]-3-(4-hydroxy-2,3-dihydrobenzofuran-5-yl)-4-methyl-1,2,4-triazin-5-one], in assay [1], the IC50 is more than 20 µM.

Turning to `Cn1c(-c2ccc(C(F)(F)F)cc2O)nnc(N[C@@H]2CCCN(C3CC3)C2)c1=O` [Example 10, (R)-6-((1-Cyclopropylpiperidin-3-yl)amino)-3-(2-hydroxy-4-(trifluoromethyl)phenyl)-4-methyl-1,2,4-triazin-5(4H)-one], the values for the 50% inhibitory concentration (IC50) in assay [1], in assay [2] and in assay [3] were more than 20 µM, 39 nM and 170 nM, respectively.

On to `CCN1CCC[C@@H](Nc2nnc(-c3ccc(C(F)(F)F)cc3O)n(C)c2=O)C1` [Example 19, 6-[[(3R)-1-Ethyl-3-piperidyl]amino]-3-[2-hydroxy-4-(trifluoromethyl)phenyl]-4-methyl-1,2,4-triazin-5-one;2,2,2-trifluoroacetic Acid], for which the IC50 in assay [1] is more than 20 µM; in assay [2], 10 nM; in assay [3], 9.5 nM.

In the case of `CCN1CCC[C@@H](Nc2nnc(-c3ccc(F)cc3O)n(C)c2=O)C1` [Example 21, 6-[[(3R)-1-Ethyl-3-piperidyl]amino]-3-(4-fluoro-2-hydroxy-phenyl)-4-methyl-1,2,4-triazin-5-one], the IC50 in assay [1] was more than 20 µM; in assay [2], 58 nM; in assay [3], 28 nM.

`CCN1CCC[C@@H](Nc2nnc(-c3ccc(OC(F)F)cc3O)n(C)c2=O)C1` [Example 23, 3-[4-(Difluoromethoxy)-2-hydroxy-phenyl]-6-[[(3R)-1-ethyl-3-piperidyl]amino]-4-methyl-1,2,4-triazin-5-one; Formic Acid]: the IC50 in assay [2] came to 8.1 nM; in assay [3], 6.5 nM.

For `CCN1CCC[C@@H](Nc2nnc(-c3ccc(C(C)(F)F)cc3O)n(C)c2=O)C1` [Example 24, 3-[4-(1,1-Difluoroethyl)-2-hydroxy-phenyl]-6-[[(3R)-1-ethyl-3-piperidyl]amino]-4-methyl-1,2,4-triazin-5-one], the IC50 worked out at 106 nM in assay [2] and 108 nM in assay [3].

Consider `CCN1CCC[C@@H](Nc2nnc(-c3ccc(C(C)=O)cc3O)n(C)c2=O)C1` [Example 25, 3-(4-Acetyl-2-hydroxy-phenyl)-6-[[(3R)-1-ethyl-3-piperidyl]amino]-4-methyl-1,2,4-triazin-5-one], for which the half-inhibitory concentration (IC50) in assay [2] is 9.3 nM; in assay [3], 15 nM.

Consider `CCN1CCC[C@@H](Nc2nnc(-c3ccc(OC(F)(F)F)cc3O)n(C)c2=O)C1` [Example 27, 6-[[(3R)-1-Ethyl-3-piperidyl]amino]-3-[2-hydroxy-4-(trifluoromethoxy)phenyl]-4-methyl-1,2,4-triazin-5-one], for which the concentration for half-maximal inhibition (IC50) was more than 20 µM in assay [1], 12 nM in assay [2] and 14 nM in assay [3].

Consider `CCN1CCC[C@@H](Nc2nnc(-c3c(C)cc(C(F)(F)F)cc3O)n(C)c2=O)C1` [Example 28, 6-[[(3R)-1-Ethyl-3-piperidyl]amino]-3-[2-hydroxy-6-methyl-4-(trifluoromethyl)phenyl]-4-methyl-1,2,4-triazin-5-one], for which the IC50 was more than 20 µM in assay [1], 13 nM in assay [2] and 31 nM in assay [3].

In turn, `CCN1CCC[C@@H](Nc2nnc(-c3ccc(Cl)cc3O)n(C)c2=O)C1` [Example 33, 3-(4-Chloro-2-hydroxy-phenyl)-6-[[(3R)-1-ethyl-3-piperidyl]amino]-4-methyl-1,2,4-triazin-5-one] registered a half-maximal inhibitory concentration (IC50) in assay [1] of more than 20 µM.

Regarding `CN1CCC[C@@H](Nc2nnc(-c3ccc(OC(F)(F)F)cc3O)n(C)c2=O)C1` [Example 34, 3-[2-Hydroxy-4-(trifluoromethoxy)phenyl]-4-methyl-6-[[(3R)-1-methyl-3-piperidyl]amino]-1,2,4-triazin-5-one], the values for the IC50 in assay [2] and in assay [3] were 13.1 nM and 35.2 nM, respectively.

`CCN1CCCC(Nc2cc(C)c(-c3ccc(C(F)(F)F)cc3O)nn2)C1` (centres unmarked) [RE-A, 2-[6-[(1-ethyl-3-piperidyl)amino]-4-methyl-pyridazin-3-yl]-5-(trifluoromethyl)phenol, reference compound] had a half-maximal inhibitory concentration (IC50) in assay [1] of 1.2 µM.
